Earlier results in patent publication EP0112266B1, “Substituted tropyl and pseudotropyl benzoates and their use in migraine treatment” (MERRELL DOW FRANCE ET CIE, priority 1982, dated 1984).

Columns and labels:
[1] = slow intravenous injection, 10 mg
[2] = tested on: isolated guinea pig ileum; settings: stated in Schultz et al, 1972
[3] = biological target: T1, 5-HT M-receptor (Oryctolagus cuniculus, UniProt G1TUQ4); settings: potency as 5-HT M-receptor antagonist; literature values (Fozard et al, Eur. J. Pharmacol. 1978/1979)
T1 sequence (G1TUQ4 24-513): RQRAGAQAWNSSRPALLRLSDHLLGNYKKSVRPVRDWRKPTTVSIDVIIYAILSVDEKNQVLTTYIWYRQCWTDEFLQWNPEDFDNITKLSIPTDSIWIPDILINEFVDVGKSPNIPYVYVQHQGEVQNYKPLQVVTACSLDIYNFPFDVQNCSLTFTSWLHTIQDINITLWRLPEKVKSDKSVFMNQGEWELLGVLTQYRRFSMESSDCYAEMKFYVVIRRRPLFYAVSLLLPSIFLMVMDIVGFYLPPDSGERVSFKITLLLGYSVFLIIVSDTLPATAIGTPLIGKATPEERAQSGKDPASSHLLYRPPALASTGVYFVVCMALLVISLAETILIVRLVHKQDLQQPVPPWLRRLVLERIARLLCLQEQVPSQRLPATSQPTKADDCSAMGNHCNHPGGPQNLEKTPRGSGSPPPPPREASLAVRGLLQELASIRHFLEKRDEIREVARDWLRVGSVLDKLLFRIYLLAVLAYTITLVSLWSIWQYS

In the case of `CCN(CC)CCNC(=O)c1cc(Cl)c(N)cc1OC` [metoclopramide], the “relief of acute migraine attack” value [1] is listed as “immediate relief”.
In the case of `CN1[C@@H]2CC[C@H]1C[C@@H](OC(=O)c1ccccc1Cl)C2` [tropyl 2-chlorobenzoate], the spasmolytic- inducing activity [2] is listed as “spasmolytic- inducing activity”.
In the case of `CN1[C@@H]2CC[C@H]1C[C@@H](OC(=O)c1ccccc1)C2` [benzoyl tropine], the pA2 [3] is given as 7.2.
